Measurements: patent publication US10087156B2, “Methods and compositions related to retinoid receptor-selective pathway” (Sanford Burnham Prebys Medical Discovery Institute, priority 2010, dated 2018)
“Also recorded” adds a separate entry of the source.

Legend:
[1] = target: T1, RXRα ligand-binding domain (LBD) (Homo sapiens, UniProt P19793); test: Competitive ligand-binding assay with [3H]9-cis-RA
T1 construct: made in house
Experimental: Competitive ligand-binding assays (FIG. 1A) and HPLC analysis of Sulindac binding to RXRα, Nur77, or RARβ in HEK293T cells (FIG. 1B) were performed. RXRα LBD protein was incubated with [^3H]9-cis-RA in the presence or absence of Sulindac or unlabeled 9-cis-RA. Bound [^3H]9-cis-RA was quantitated by liquid scintillation counting (FIG. 1A). HEK293T cells stably expressing RXRαfused to a C-terminal TAP tag (Stratagene, La Jolla, Calif.) were treated with or without 100 μM sulindac sulfide for 3 hr. After treatment, cells were purified and analyzed by HPLC for the presence of sulindac sulfide. A standard solution of sulindac sulfide was used to obtain the calibration curve. Characteristic peak spectrum and retention time was used for identification, and peak areas at max used for quantification were calculated (FIGS. 1B and 10). Sulindac sulfide bound to RXRα with an IC50 of 80 μM (FIG. 1A), which is in the concentration range that induces apoptosis.
Bacterially expressed His-tagged RXRα ligand-binding domain (LBD) (aa 223-462) was incubated with [^3H]-9-cis-RA (Amersham Biosciences, Amersham, UK) in ligand binding assay buffer in the presence or absence of various concentrations of unlabeled 9-cis-RA or sulindac sulfide. […] Bound radiolabeled 9-cis-RA was determined in a scintillation counter as described (Kolluri, S. K. et al., Proc Natl Acad Sci USA 102 (7), 2525-2530 (2005)).

AKT [2] = test: TNFα-induced AKT activation by immunoblotting; format: cell-based
Experimental: MEF and MCF-7 cells were starved overnight, pretreated with Sulindac for 1 hr, and stimulated with EGF (100 ng/ml) for 15 min. AKT activation was analyzed by immunoblotting (FIG. 12A). MEF and Caco-2 cells were starved overnight and pretreated with Sulindac for 30 min before exposure to all-trans-retinoic acid (ATRA) (10^−7 M) for 30 min and analyzed for AKT activation (FIG. 12B). AKT activation in ZR-75-1 breast cancer cells transfected with RXRα siRNA for 48 hr before exposure to 9-cis-RA (10^−7 M) for 30 min was also analyzed by immunoblotting (FIG. 12C). A549 lung cancer cells transfected with RXRα or control siRNA (FIG. 3C) and ZR-75-1 and PC3 cells (FIG. 3D) were pretreated with Sulindac (100 μM) for 1 hr before exposure to TNFα (10 ng/ml) for 30 min and analyzed for AKT activation and RXRα expression by immunoblotting.
(§1) For immunoblotting, cell lysates were boiled in SDS sample buffer, resolved by SDS-polyacrylamide gel electrophoresis, and transferred to nitrocellulose. After transfer, the membranes were blocked in 5% milk in TBST (10 mM Tris-HCl, pH. 8.0, 150 mM NaCl, 0.05% Tween 20) containing antibody. The membranes were then washed three times with TBST, then incubated for 1 hr at room temperature in 5% milk in TBST containing horseradish peroxide-linked anti-immunoglobulin.

[3] = test system: HeLa/RXRα/1-134 stable clone; test: Colony formation (clonogenic survival) assay; format: cell-based; conditions: HeLa/RXRα/1-134 stable clone (also RXRα/Δ80 stable clones)
Experimental: HeLa RXR/α1-134 stable clone and control HeLa cells were seeded in 6-well plate, 350 cells/well. Five days later, cells were treated with Sulindac (50 μM) and K-80003 (25 μM) in 0.5% serum medium for 3 days. After washed with PBS, cells were fixed with 4% paraformaldehyde in PBS for 20 min. Colonies were stained with 0.1% crystal violet for 30 min, and pictures were taken and colonies were counted.

[4] = test system: prostaglandin E2 (PGE2) production; test: PGE2 production in A549 cells; format: cell-based, human
Experimental: A549 cells were seeded in 24-well plates in DMEM with 10% fetal bovine serum. After overnight culture, cells were stimulated with 10 ng/ml IL-1β in DMEM medium without serum for 24 hr. After 10 min pretreatment with the indicated concentrations of Sulindac or analog, cells were co-treated with 10 μM arachidonic acid and Sulindac or its analog for 30 min at 37° C. Medium was collected and immediately assayed. PGE2 production was measured with Prostaglandin E2 EIA Kit-Monoclonal according to the manufacturer's instructions (Cayman Chemical, Ann Arbor, Mich.). PGE2 production (%) is expressed as the ratio of PGE2 produced in the presence of compound to that with vehicle alone.

HepG2 liver cancer cells = test: PARP cleavage and caspase-8 activation with TNFα by immunoblotting; format: cell-based; conditions: HepG2 (K-80003: HepG2 and PC3) cells, TNFα 10 ng/ml
Experimental: ZR-75-1 cells were treated with TNFα and/or Sulindac (75 μM) or K-80003 (50 μM) for 6 hr and analyzed by immunoblotting.
HepG2 cells cultured in medium with 1% FBS were treated with SR11237 (1 μM) for 1 hr, then TNFα (10 ng/ml) and/or Sulindac (75 μM) for 4 hr, and analyzed by immunoblotting. HepG2 cells transfected with control or RXRα siRNA were treated with TNFα and/or Sulindac and analyzed by immunoblotting.

MCF-7 breast tumor = MCF-7 breast tumor growth, oral administration; format: in vivo; conditions: mice, 15, 30, 60 mg/kg by gavage once daily, 20 days
Experimental: The growth inhibitory effect of oral administration of K-80003 on MCF-7 breast tumor tissue grown in mice was investigated. K-80003 was dissolved in NaHCO3 (pH 8.0). Mice with MCF-7 breast tumor tissue were administered 15 mg/kg K-80003, 30 mg/kg K-80003, 60 mg/kg K-80003, or a control in 100 ul total volume by gavage once daily.

RARγ protein = RARγ protein (Homo sapiens, UniProt P13631); test: Ligand-binding assay with [3H]all-trans-RA; conditions: competition with [3H]all-trans-RA
RARγ protein, sequence (P13631 whole entry, species assumed): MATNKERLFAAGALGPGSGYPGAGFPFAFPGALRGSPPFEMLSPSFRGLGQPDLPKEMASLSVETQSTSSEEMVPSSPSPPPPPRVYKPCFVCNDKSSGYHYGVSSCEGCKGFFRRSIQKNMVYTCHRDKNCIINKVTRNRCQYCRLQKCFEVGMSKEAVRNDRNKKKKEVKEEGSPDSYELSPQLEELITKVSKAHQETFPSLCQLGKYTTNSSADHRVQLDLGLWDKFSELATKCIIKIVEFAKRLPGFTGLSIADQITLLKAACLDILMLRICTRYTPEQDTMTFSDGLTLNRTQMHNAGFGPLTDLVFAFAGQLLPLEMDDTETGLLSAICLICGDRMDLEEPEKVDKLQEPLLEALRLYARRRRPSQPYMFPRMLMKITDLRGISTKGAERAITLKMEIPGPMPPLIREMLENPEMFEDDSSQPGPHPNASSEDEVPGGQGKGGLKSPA
Experimental: Purified RARγ protein was incubated with [^3H]all-trans-RA in the presence or absence of Sulindac or unlabeled all-trans RA. Bound [^3H]all-trans-RA was quantitated by liquid scintillation counting.

AKT [5] = test: Basal AKT activation by immunoblotting; format: cell-based; conditions: various cancer cell lines incl. SW480 and HCT116, 100 μM, 1 hr
Experimental: HepG2, SW480, RAW264.7, HCT116, LNCaP, PC3, ZR-75-1, and HaCat cells were starved overnight and treated with Sulindac (100 μM) for 1 hr and analyzed for AKT activation by immunoblotting (FIG. 3A). HepG2 cells were also transfected with RXRα siRNA for 48 hours, treated with Sulindac (100 μM) for 1 hour, and analyzed for AKT activation and RXRα expression by immunoblotting (FIG. 3B).
as §1

T1 sequence (P19793 223-462): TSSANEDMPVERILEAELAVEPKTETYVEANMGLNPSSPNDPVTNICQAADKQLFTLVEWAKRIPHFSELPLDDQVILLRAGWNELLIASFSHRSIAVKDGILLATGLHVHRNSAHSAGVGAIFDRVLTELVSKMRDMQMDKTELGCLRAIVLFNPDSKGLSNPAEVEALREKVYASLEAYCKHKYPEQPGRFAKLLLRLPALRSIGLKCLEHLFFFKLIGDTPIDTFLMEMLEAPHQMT

Row | RXRα-binding activity, fold higher than Sulindac ([1]; competition ligand-binding assay) | Structure (SMILES) | inhibition of TNFα-induced AKT activation, compared with Sulindac (AKT [2]; 50 μM each) | inhibition of colony formation [3] | inhibition of constitutive and TNFα- or IL-1β-induced PGE2 production [4] | PARP cleavage and caspase-8 activation, combination with TNFα (HepG2 liver cancer cells) | tumor volume compared to control (MCF-7 breast tumor) | IC50 ([1]; competition with [3H]9-cis-RA on RXRα LBD protein) | binding to RARγ (RARγ protein) | inhibition of basal AKT activation (AKT [5]) | inhibition of TNFα-induced AKT activation (AKT [2]; A549 lung cancer cells, 100 μM, TNFα 10 ng/ml) | inhibition of AKT activation, Sulindac alone (AKT [2]; ZR-75-1 and PC3 cells (high basal AKT activation)) | inhibition of AKT activation, combination with TNFα (AKT [2]; ZR-75-1 and PC3 cells, 100 μM, TNFα 10 ng/ml)
1 | about 34 fold | CC1=C(CC(=O)O)c2cc(F)ccc2/C1=C\c1ccc(C(C)C)cc1 [K-80003, (Z)-2-(3-(4-Iso-propylbenzylidene)-6-fluoro-2-methyl-3H-inden-1-yl)acetic acid] | much more effective than Sulindac | much more effective than Sulindac; also recorded: almost completely suppressed | failed to inhibit; also recorded: did not inhibit | synergistically induced PARP cleavage and caspase-8 activation | dose-dependent decrease in tumor volume | – | – | – | – | – | –
2 | – | CSc1ccc(/C=C2/C(C)=C(CC(=O)O)c3cc(F)ccc32)cc1 [Sulindac, (Z)-2-(3-(4-(Methylthio)benzylidene)-6-fluoro-2-methyl-3H-inden-1-yl)acetic acid] | – | strongly inhibited | – | effectively induced PARP cleavage and caspase-8 activation | – | 80 µM | did not bind | Significant inhibition | potently inhibited | little inhibitory effect | almost completely
